# Results from paper PMC9791402, “Yeast 9-1-1 complex acts as a sliding clamp for DNA synthesis by DNA polymerase ε” (The Journal of Biological Chemistry, 2022).
# Target: T1, Polε (WT holoenzyme) (Saccharomyces cerevisiae, UniProt P21951)
# T1 construct: gene POL2; four-subunit holoenzyme, GST tag on Pol2 cut with PreScission protease, gel filtration, expressed in yeast YRP654; with DNA polymerase epsilon subunit B; DNA polymerase epsilon subunit C; DNA polymerase epsilon subunit D
# Assay: gel-based primer extension, […]-labeled primer
# Format: biochemical
# Settings: 50 μM dCTP running start opposite a run of 5 template G; 5 mM MgCl2, pH 7.5, 30 °C
# T1 sequence (P21951 whole entry): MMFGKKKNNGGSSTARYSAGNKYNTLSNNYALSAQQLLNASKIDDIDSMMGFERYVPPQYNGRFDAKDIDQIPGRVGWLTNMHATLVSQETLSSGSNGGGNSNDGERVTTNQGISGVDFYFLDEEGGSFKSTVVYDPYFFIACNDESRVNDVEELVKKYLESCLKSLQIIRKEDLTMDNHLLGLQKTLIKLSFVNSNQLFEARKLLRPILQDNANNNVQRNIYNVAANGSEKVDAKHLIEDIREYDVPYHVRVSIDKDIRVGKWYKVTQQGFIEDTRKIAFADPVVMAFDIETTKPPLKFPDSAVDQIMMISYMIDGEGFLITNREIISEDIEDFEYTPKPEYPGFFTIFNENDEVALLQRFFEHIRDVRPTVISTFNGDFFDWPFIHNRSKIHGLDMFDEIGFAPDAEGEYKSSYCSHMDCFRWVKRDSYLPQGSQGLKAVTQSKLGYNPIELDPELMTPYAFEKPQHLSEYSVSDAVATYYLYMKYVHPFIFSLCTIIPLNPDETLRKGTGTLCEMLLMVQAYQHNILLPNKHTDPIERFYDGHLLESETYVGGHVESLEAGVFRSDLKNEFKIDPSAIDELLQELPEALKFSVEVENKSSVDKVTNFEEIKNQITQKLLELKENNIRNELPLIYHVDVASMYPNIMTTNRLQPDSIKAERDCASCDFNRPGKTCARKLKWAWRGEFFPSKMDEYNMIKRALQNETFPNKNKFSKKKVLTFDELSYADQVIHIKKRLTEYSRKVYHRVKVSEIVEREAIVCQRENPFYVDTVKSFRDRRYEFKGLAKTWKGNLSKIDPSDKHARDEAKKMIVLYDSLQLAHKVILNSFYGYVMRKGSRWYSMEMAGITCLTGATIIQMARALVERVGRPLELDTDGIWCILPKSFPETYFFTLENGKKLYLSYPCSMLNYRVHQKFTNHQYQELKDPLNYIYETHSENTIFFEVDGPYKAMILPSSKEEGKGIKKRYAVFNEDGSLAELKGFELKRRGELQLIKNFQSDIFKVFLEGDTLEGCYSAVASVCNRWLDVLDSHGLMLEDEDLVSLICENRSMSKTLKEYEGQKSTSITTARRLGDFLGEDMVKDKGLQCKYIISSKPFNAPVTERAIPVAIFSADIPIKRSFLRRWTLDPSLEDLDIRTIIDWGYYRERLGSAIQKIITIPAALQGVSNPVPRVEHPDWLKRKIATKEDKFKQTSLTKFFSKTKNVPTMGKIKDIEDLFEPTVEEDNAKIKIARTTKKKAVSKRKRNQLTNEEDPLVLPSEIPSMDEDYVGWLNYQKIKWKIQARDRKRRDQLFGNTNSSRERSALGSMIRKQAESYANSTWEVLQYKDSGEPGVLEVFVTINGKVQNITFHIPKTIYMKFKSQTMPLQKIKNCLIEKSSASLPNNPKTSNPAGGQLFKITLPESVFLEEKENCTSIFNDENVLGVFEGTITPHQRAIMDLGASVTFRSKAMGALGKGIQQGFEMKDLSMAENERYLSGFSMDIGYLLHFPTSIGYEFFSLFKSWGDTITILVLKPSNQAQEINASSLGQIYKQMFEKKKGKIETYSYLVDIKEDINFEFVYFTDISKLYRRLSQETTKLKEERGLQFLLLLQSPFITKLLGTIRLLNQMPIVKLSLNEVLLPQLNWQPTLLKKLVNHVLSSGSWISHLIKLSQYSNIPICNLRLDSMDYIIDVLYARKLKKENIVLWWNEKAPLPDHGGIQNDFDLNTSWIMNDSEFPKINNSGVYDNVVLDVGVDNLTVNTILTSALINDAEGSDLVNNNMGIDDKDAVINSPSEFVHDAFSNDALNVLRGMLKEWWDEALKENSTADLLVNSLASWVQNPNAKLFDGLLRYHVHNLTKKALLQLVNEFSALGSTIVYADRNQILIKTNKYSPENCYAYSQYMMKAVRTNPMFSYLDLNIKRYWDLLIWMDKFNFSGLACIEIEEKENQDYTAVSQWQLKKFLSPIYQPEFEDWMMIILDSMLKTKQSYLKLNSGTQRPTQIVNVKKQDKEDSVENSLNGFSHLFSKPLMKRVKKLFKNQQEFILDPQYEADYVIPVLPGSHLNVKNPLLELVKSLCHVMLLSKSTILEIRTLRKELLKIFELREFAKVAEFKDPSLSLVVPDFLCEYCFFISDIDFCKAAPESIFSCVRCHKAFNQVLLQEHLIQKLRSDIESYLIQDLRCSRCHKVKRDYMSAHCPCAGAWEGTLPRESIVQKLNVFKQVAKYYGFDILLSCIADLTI
# T1 sequence (P24482 whole entry partner): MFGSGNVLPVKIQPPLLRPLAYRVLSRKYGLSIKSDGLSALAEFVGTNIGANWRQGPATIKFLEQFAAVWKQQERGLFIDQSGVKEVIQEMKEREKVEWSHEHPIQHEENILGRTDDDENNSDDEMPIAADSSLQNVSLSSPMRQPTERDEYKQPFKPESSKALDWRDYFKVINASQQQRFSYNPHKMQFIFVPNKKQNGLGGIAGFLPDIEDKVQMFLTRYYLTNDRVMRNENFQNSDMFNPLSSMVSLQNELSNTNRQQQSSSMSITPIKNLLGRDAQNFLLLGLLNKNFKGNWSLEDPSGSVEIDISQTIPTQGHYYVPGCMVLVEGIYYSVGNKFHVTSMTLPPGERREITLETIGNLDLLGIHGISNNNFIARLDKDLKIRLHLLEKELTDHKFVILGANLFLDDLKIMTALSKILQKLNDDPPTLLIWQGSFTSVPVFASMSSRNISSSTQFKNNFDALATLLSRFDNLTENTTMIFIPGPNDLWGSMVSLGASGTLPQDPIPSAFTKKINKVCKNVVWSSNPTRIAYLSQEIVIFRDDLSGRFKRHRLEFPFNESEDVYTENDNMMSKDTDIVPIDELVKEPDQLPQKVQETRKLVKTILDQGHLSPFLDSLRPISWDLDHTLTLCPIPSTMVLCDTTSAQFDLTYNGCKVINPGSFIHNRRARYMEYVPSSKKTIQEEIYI
# T1 sequence (P27344 whole entry partner): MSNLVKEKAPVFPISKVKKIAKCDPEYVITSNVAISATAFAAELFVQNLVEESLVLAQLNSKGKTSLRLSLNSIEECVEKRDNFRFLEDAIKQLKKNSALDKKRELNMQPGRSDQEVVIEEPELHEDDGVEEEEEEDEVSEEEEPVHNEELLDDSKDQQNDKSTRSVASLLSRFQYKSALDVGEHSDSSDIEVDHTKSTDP
# T1 sequence (Q04603 whole entry partner): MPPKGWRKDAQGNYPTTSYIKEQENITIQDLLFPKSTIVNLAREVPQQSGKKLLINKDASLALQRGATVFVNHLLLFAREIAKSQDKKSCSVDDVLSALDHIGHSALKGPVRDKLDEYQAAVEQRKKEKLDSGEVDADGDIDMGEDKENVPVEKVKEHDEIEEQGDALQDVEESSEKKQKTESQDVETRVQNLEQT
smiles,measurement,value
Nc1ccn([C@H]2C[C@H](O)[C@@H](COP(=O)(O)OP(=O)(O)OP(=O)(O)O)O2)c(=O)n1 [dCTP],"gel-based primer extension, 32P-labeled primer",dCTP was added to initiate DNA synthesis opposite the template G residues
